Data as given in patent US20250092064A1, “BENZOTRIAZOLE COMPOUND” (DAIICHI SANKYO COMPANY, LIMITED, priority 2022, published 2025).

What was measured:
[1] = system: NQO1 activity in Hepa1c1c7 cells; assay: NAD(P)H: quinone oxidoreductase-1 (NQO1) enzyme induction assay (in vitro); format: cell-based, mouse; details: Mus musculus, Hepa-1c1c7, NQO1 activity with 400 nM test compound as a ratio from the base without compound, about 48 hr
Outline: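 Mouse Hepa1c1c7 hepatoma cells treated 48 hr with 400 nM compound (final). NQO1 activity in lysates read by absorbance at 610 nm; value is background-subtracted activity ratio versus untreated cells.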

[2] = Measurement test of plasma drug concentration after oral administration in rats; format: in vivo; details: male SD rats, 10 mg/2 mL/kg in 0.5% methylcellulose; for AUC(0-t): rat, plasma, 10 mg/kg, read-out: AUC0-24
Protocol: 10 mg/2 mL/kg of the test compound suspended in 0.5% methylcellulose solution were force-fed to Male SD rats (7 weeks old, Japan SLC). Blood was collected from the jugular vein using a syringe with heparin at 0.5, 1, 2, 4, 6, and 24 hr after administration. After blood collection, to 20 μL of centrifuged plasma was added an equal volume of acetonitrile followed by 200 μL of internal standard (IS) solution. After agitation, all the supernatant after centrifugation was filtered, and the collected filtrate was used as the assay sample. Equal volumes of the test compound solution prepared in acetonitrile were added to blank plasma, and the samples processed in the same manner as above were used as samples for the calibration curve. The prepared samples were measured using LC/MS/MS, and the area under the blood concentration-time curve (AUC) was calculated from the compound concentration in plasma.

[3] = biological target: binding between Nrf2 and Keap1 (Homo sapiens (Human), UniProt Q14145); assay: FP assay (in vitro): inhibition of Nrf2-Keap1 binding by fluorescence polarization; details: GST-fused human Keap1 (325-642) 20 nM, FITC-labeled Nrf2 peptide 10 nM, 2 hr at room temperature
Sequence of binding between Nrf2 and Keap1 (Q14145 325-624 limits assumed): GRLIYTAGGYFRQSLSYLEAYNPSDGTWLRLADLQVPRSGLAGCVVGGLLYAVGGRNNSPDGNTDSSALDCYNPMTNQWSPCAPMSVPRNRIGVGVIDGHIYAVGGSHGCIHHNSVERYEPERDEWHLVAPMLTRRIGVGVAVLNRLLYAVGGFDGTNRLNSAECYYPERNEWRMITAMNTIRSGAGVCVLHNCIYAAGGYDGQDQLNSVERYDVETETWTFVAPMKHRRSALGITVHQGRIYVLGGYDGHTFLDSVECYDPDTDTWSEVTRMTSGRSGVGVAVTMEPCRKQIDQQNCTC

maximam plasma concentration [2]	AUC(0-t) [2]	IC50 [3]	Structure (SMILES)	fold induction at 0.4 µM [1]
0.029 µM	0.05 µM·h	≤ 10 nM	CC[C@@H]1CN(Cc2cc([C@H](CC(=O)O)c3ccc4c(nnn4C)c3C)cc3c2CCC3)S(=O)(=O)c2cc(Cl)cnc2O1 [Example 4, (3S)-3-(7-{[(4R)-8-Chloro-4-ethyl-1,1-dioxido-3,4-dihydro-2H-pyrido[2,3-b][1,4,5]oxathiazepin-2-yl]methyl}-2,3-dihydro-1H-inden-5-yl)-3-(1,4-dimethyl-1H-benzotriazol-5-yl)propanoic acid]	> 5
0.005 µM	0.023 µM·h	≤ 10 nM	CC[C@@H]1CN(Cc2cc([C@@H](CC(=O)O)c3ccc4c(nnn4C)c3C)cc3ccsc23)S(=O)(=O)c2cc(Cl)cnc2O1 [Example 8, (3R)-3-(7-{[(4R)-8-Chloro-4-ethyl-1,1-dioxido-3,4-dihydro-2H-pyrido[2,3-b][1,4,5]oxathiazepin-2-yl]methyl}-1-benzothiophen-5-yl)-3-(1,4-dimethyl-1H-benzotriazol-5-yl)propanoic acid]	> 5
0.006 µM	0.035 µM·h	10 to 30 nM	CC[C@@H]1CN(Cc2cc([C@@H](CC(=O)O)c3ccc4c(nnn4C)c3C)cc3c2CCC3)S(=O)(=O)c2cc(Cl)cnc2O1 [Example 5, (3R)-3-(7-{[(4R)-8-Chloro-4-ethyl-1,1-dioxido-3,4-dihydro-2H-pyrido[2,3-b][1,4,5]oxathiazepin-2-yl]methyl}-2,3-dihydro-1H-inden-5-yl)-3-(1,4-dimethyl-1H-benzotriazol-5-yl)propanoic acid]	> 5
